The test has as its system 556581-035-R-J1-PDC complex spheroid growth. Put plainly: Anticancer human tumor 556581-035-R-J1-PDC patient-derived ovarian carcinoma cell line growth inhibition [Asc]. To be noted: for viability, T/C: stronger effect = lower value. An outline of the steps: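 Tumor cells were grown as complex spheroids with human endothelial cells (HUVEC) and human mesenchymal stem cells as stroma. Agents were tested alone and in combination, in half-log steps down from the clinical Cmax, or from 10 microM where Cmax was unknown.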

SMILES strings stand for the structures. “And” between values parts separate entries of the source, which are not always exact repeats. Identical values can stand only once.

A word on the IC50: it is the midpoint of a concentration-inhibition curve. The viability, T/C is the ratio of treated to control.
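Also: spheroids exposed to agents for 7 days before viability read.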

In the case of `O=C(c1ccc(F)c(F)c1Nc1ccc(I)cc1F)N1CC(O)([C@@H]2CCCCN2)C1` + CCN1C(C(=O)NC23CCC(C(=O)O)(CC2)CC3)C(c2cccc(Cl)c2F)C2(C(=O)Nc3cc(Cl)ccc32)C12CCCCC2, the IC50 was 209 nM (curve of first compound, second compound 0.03 µM); 208 nM (curve of first compound, second compound 0.0949 µM); 181 nM (curve of first compound, second compound 0.3 µM); 188 nM (curve of first compound, second compound 0.949 µM); 92.1 nM (curve of first compound, second compound 3 µM). The viability, T/C (second compound 0.03 µM, first compound 0.00316 µM) is 118%; the viability, T/C (second compound 0.03 µM, first compound 0.01 µM) is 99.4%; the viability, T/C (second compound 0.03 µM, first compound 0.0316 µM) is 97.7%; the viability, T/C (second compound 0.03 µM, first compound 0.1 µM) was 72.9%; the viability, T/C (second compound 0.03 µM, first compound 0.316 µM) was 35.9%; the viability, T/C (second compound 0.03 µM, first compound 1 µM) was 10.6%. The viability, T/C runs as follows: (second compound 0.0949 µM, first compound 0.00316 µM) 108%; (second compound 0.0949 µM, first compound 0.01 µM) 114%; (second compound 0.0949 µM, first compound 0.0316 µM) 95.8%; (second compound 0.0949 µM, first compound 0.1 µM) 85.9%; (second compound 0.0949 µM, first compound 0.316 µM) 29.6%; (second compound 0.0949 µM, first compound 1 µM) 10.4%. For the same compound, the viability, T/C was 106% (second compound 0.3 µM, first compound 0.00316 µM); 104% (second compound 0.3 µM, first compound 0.01 µM); 127% (second compound 0.3 µM, first compound 0.0316 µM); 73.5% (second compound 0.3 µM, first compound 0.1 µM); 29.8% (second compound 0.3 µM, first compound 0.316 µM); 9.99% (second compound 0.3 µM, first compound 1 µM). For the same compound, the viability, T/C is 99.1% (second compound 0.949 µM, first compound 0.00316 µM); 119% (second compound 0.949 µM, first compound 0.01 µM); 100% (second compound 0.949 µM, first compound 0.0316 µM); 78.1% (second compound 0.949 µM, first compound 0.1 µM); 26.8% (second compound 0.949 µM, first compound 0.316 µM); 12.4% (second compound 0.949 µM, first compound 1 µM). In addition, the viability, T/C runs as follows: (second compound 3 µM, first compound 0.00316 µM) 99.9%; (second compound 3 µM, first compound 0.01 µM) 97.3%; (second compound 3 µM, first compound 0.0316 µM) 86.3%; (second compound 3 µM, first compound 0.1 µM) 47.3%; (second compound 3 µM, first compound 0.316 µM) 17.2%; (second compound 3 µM, first compound 1 µM) 11.4%.

`CCN1CCN(Cc2ccc(Nc3ncc(F)c(-c4cc(F)c5nc(C)n(C(C)C)c5c4)n3)nc2)CC1`: the viability, T/C was 105% and 78% and 90.7% (compound 0.00316 µM); 84.4% and 87.4% and 107% (compound 0.01 µM); 88.9% and 97.7% and 107% (compound 0.0316 µM); 85.2% and 84.8% and 106% (compound 0.1 µM); 76.2% and 64.5% and 69.5% (compound 0.316 µM); 76.5% and 76.4% and 66.7% (compound 1 µM). Further, the IC50 (curve of compound) was over 1000 nM.

For `NC(=O)C(=Cn1cnc(-c2cc(C(F)(F)F)cc(C(F)(F)F)c2)n1)c1cncnc1`, the viability, T/C was 96.8% and 78.4% and 91% (compound 0.000949 µM); 79.9% and 83.7% and 94.9% (compound 0.003 µM); 97.6% and 97.4% and 87% (compound 0.00949 µM); 88.8% and 107% and 101% (compound 0.03 µM); 97.1% and 55.4% and 87.1% (compound 0.0949 µM); 95.9% and 77.4% and 102% (compound 0.3 µM). Besides, the IC50 (curve of compound) was over 300 nM.

`Cc1nc(N2CCC3(CC2)COC(C)C3N)c(CO)nc1Sc1ccnc(N)c1Cl` (centres undefined) + Cc1c(S(C)(=O)=O)c(-c2cc(F)cc(N3CCN(c4ccc(NS(=O)(=O)c5ccc(NC(CCN6CCC(C(=O)OCCCP(=O)(O)O)CC6)CSc6ccccc6)c(S(=O)(=O)C(F)(F)F)c5)cc4)CC3)c2)c(-c2ccc(Cl)cc2)n1C(C)C: the IC50 runs as follows: (curve of first compound, second compound 0.1 µM) 544 nM; (curve of first compound, second compound 0.316 µM) 389 nM; (curve of first compound, second compound 1 µM) 266 nM; (curve of first compound, second compound 3.16 µM) 97 nM; (curve of first compound, second compound 10 µM) 14.1 nM. The viability, T/C (second compound 0.1 µM, first compound 0.00949 µM) is 81.7%; the viability, T/C (second compound 0.1 µM, first compound 0.03 µM) was 90.2%; the viability, T/C (second compound 0.1 µM, first compound 0.0949 µM) was 62.4%; the viability, T/C (second compound 0.1 µM, first compound 0.3 µM) was 57.5%; the viability, T/C (second compound 0.1 µM, first compound 0.949 µM) was 47%; the viability, T/C (second compound 0.1 µM, first compound 3 µM) is 36.2%. The viability, T/C was 72.5% (second compound 0.316 µM, first compound 0.00949 µM); 64.4% (second compound 0.316 µM, first compound 0.03 µM); 54.9% (second compound 0.316 µM, first compound 0.0949 µM); 53.8% (second compound 0.316 µM, first compound 0.3 µM); 47.6% (second compound 0.316 µM, first compound 0.949 µM); 32.8% (second compound 0.316 µM, first compound 3 µM). Besides, the viability, T/C (second compound 1 µM, first compound 0.00949 µM) was 62%; the viability, T/C (second compound 1 µM, first compound 0.03 µM) is 63.8%; the viability, T/C (second compound 1 µM, first compound 0.0949 µM) is 59.5%; the viability, T/C (second compound 1 µM, first compound 0.3 µM) was 49.1%; the viability, T/C (second compound 1 µM, first compound 0.949 µM) was 31.2%; the viability, T/C (second compound 1 µM, first compound 3 µM) is 30.6%. In addition, the viability, T/C runs as follows: (second compound 3.16 µM, first compound 0.00949 µM) 55.5%; (second compound 3.16 µM, first compound 0.03 µM) 60.5%; (second compound 3.16 µM, first compound 0.0949 µM) 50.3%; (second compound 3.16 µM, first compound 0.3 µM) 35.7%; (second compound 3.16 µM, first compound 0.949 µM) 39.9%; (second compound 3.16 µM, first compound 3 µM) 29.8%. Besides, the viability, T/C was 50.8% (second compound 10 µM, first compound 0.00949 µM); 48.7% (second compound 10 µM, first compound 0.03 µM); 43.7% (second compound 10 µM, first compound 0.0949 µM); 30.7% (second compound 10 µM, first compound 0.3 µM); 37.4% (second compound 10 µM, first compound 0.949 µM); 22.3% (second compound 10 µM, first compound 3 µM).

Values taken from PubChem BioAssay AID1963450 (Molecular Pharmacology Branch, DTP, NCI, 2024).
